Test results as given in patent publication US20240294533A1, “2-(HET)ARYL-SUBSTITUTED CONDENSED HETEROCYCLE DERIVATIVES AS PEST CONTROL AGENTS” (Bayer Aktiengesellschaft, priority 2021, published 2024).

Key:
Type in all cases: in vivo
Myzus persicae = Myzus persicae oral test; conditions: 4 ppm, after 5 days
Experimental: Myzus persicae—Oral Test Solvent: 100 parts by weight of acetone An appropriate active ingredient formulation is produced by dissolving 1 part by weight of active ingredient with the specified parts by weight of solvent and making the solution up to the desired concentration with water. 50 μl of the active ingredient formulation is transferred into microtitre plates and made up to a final volume of 200 μl with 150 μl of IPL41 insect medium (33%+15% sugar). Subsequently, the plates are sealed with parafilm, which a mixed population of green peach aphids (Myzus persicae) within a second microtitre plate is able to puncture and imbibe the solution. After 5 days, efficacy in % is determined. 100% means that all the aphids have been killed; 0% means that no aphids have been killed.

Spodoptera frugiperda [1] = test: Spodoptera frugiperda spray test (maize leaf discs); conditions: Spodoptera frugiperda, foliar, 168 h, after 7 days, read-out: efficacy
In short: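 Maize leaf discs sprayed with compound formulated in acetone/DMF with alkylaryl polyglycol ether emulsifier (1000 ppm) in water, then infested with fall armyworm caterpillars after drying. Efficacy (% caterpillars killed) scored after 7 days; 100% means all killed, 0% none.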

Boophilus microplus = Boophilus microplus injection test; conditions: 20 μg/tick, after 7 days, laying of fertile eggs
Experimental: Boophilus microplus—Injection Test Solvent: dimethyl sulfoxide An appropriate active ingredient formulation is produced by mixing 10 mg of active ingredient with 0.5 ml of solvent and diluting the concentrate with solvent to the desired concentration. 1 μl of the active ingredient solution is injected into the abdomen of 5 engorged adult female cattle ticks (Boophilus microplus). The ticks are transferred into dishes and kept in a climate-controlled room. Efficacy is checked after 7 days by laying of fertile eggs. Eggs which are not visibly fertile are stored in a climate-controlled cabinet until the larvae hatch after about 42 days. Efficacy of 100% means that none of the ticks has laid any fertile eggs; 0% means that all the eggs are fertile.

Phaedon cochleariae = Phaedon cochleariae spray test; conditions: 100 g/ha, Chinese cabbage leaf discs, after 7 days
Description: Phaedon cochleariae—Spray Test
Solvent: 78.0 parts by weight of acetone • • 1.5 parts by weight of dimethylformamide
Emulsifier: alkylaryl polyglycol ether
An appropriate active ingredient formulation is produced by dissolving 1 part by weight of active ingredient with the stated parts by weight of solvent and making the solution up to the desired concentration with water containing an emulsifier concentration of 1000 ppm. Further test concentrations are produced by diluting the formulation with emulsifier-containing water.
Discs of Chinese cabbage leaves (Brassica pekinensis) are sprayed with an active ingredient formulation of the desired concentration and, after drying, populated with larvae of the mustard beetle (Phaedon cochleariae).
After 7 days, efficacy in % is determined. 100% means that all the beetle larvae have been killed; 0% means that no beetle larvae have been killed.

Nezara viridula = Nezara viridula spray test (infected barley plants sprayed); conditions: 100 g ai/ha, after 4 days
Description: Nezara viridula—Spray Test Solvent: 52.5 parts by weight of acetone • 7 parts by weight of dimethylformamide Emulsifier: alkylaryl polyglycol ether An appropriate active ingredient formulation is produced by dissolving 1 part by weight of active ingredient with the stated parts by weight of solvent and making the solution up to the desired concentration with water containing an emulsifier concentration of 1000 ppm. Further test concentrations are produced by diluting the formulation with emulsifier-containing water. If the addition of ammonium salts or/and penetrants is required, these are each added in a concentration of 1000 ppm to the formulation solution. Barley plants (Hordeum vulgare) infected with larvae of the Southern green shield bug (Nezara viridula) are sprayed with an active ingredient formulation of the desired concentration. After 4 days, efficacy in % is determined. 100% means that all of the shield bugs have been killed; 0% means that none of the shield bugs have been killed.

Spodoptera frugiperda [2] = test: Spodoptera frugiperda spray test (SPODFR), comparative; conditions: 168 h, cotton leaves, after 7 days, read-out: % Efficacy
Description: Spodoptera frugtiperda—Spray Test (SPODFR) Solvent: 14 parts by weight of dimethylformamide Emulsifier: alkylaryl polyglycol ether An appropriate active ingredient formulation is produced by dissolving 1 part by weight of active ingredient with the stated parts by weight of solvent and making the solution up to the desired concentration with water containing an emulsifier concentration of 1000 ppm. Further test concentrations are produced by diluting the formulation with emulsifier-containing water. If the addition of ammonium salts or/and penetrants is required, these are each added in a concentration of 1000 ppm to the formulation solution. Cotton leaves (Gossypium hirsutum) are sprayed with an active ingredient formulation of the desired concentration and populated with caterpillars of the armyworm (Spodoptera frugiperda). After 7 days, the kill in % is determined. 100% means that all caterpillars have been killed; 0% means that none of the caterpillars have been killed.

Plutella xylostella = Plutella xylostella spray test (PLUTMA), comparative; conditions: 168 h, 0.16 ppm, cabbage leaves, after 7 days
Description: Plutella xylostella Spray Test (PLUTMA) Solvent: 14 parts by weight of dimethylformamide Emulsifier: alkylaryl polyglycol ether An appropriate active ingredient formulation is produced by dissolving 1 part by weight of active ingredient with the stated parts by weight of solvent and making the solution up to the desired concentration with water containing an emulsifier concentration of 1000 ppm. Further test concentrations are produced by diluting the formulation with emulsifier-containing water. If the addition of ammonium salts or/and penetrants is required, these are each added in a concentration of 1000 ppm to the formulation solution. Cabbage leaves (Brassica oleracea) are sprayed with an active ingredient formulation of the desired concentration and infected with larvae of the diamondback moth (Plutella xylostella). After 7 days, the kill in % is determined. 100% means that all caterpillars have been killed; 0% means that none of the caterpillars have been killed.

Lucilia cuprina = Lucilia cuprina test; conditions: 100 ppm, L1 larvae, after 2 days
Experimental: Lucilia cuprina Test Solvent: dimethyl sulfoxide An appropriate active ingredient formulation is produced by mixing 10 mg of active ingredient with 0.5 ml of dimethyl sulfoxide and diluting the concentrate with water to the desired concentration. About 20 L1 larvae of the Australian sheep blowfly (Lucilia cuprina) are transferred into a test vessel containing minced horsemeat and the active ingredient formulation of the desired concentration. After 2 days, the kill rate in % is determined relative to the untreated control. 100% means that all the larvae have been killed; 0% means that no larvae have been killed.

CCS(=O)(=O)c1ccc(-n2ncn(-c3ccc(Cl)cc3)c2=O)nc1-c1nc2cc(C(F)(F)C(F)(F)F)cnc2n1C [Example I-23]
90%: efficacy (Boophilus microplus) | efficacy at 0.16 ppm (Plutella xylostella)
100%: efficacy (Myzus persicae) | pest or weed control at 100 g/ha (Spodoptera frugiperda [1]) | efficacy (Phaedon cochleariae) | efficacy (Nezara viridula) | Emax at 0.8 ppm (Spodoptera frugiperda [2]) | efficacy (kill rate) (Lucilia cuprina)
